According to ChEMBL document CHEMBL1201862, “PubChem BioAssay data set” (2004):
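Growth conditions: 96-well plates. Treatment: test compound, 48 hours, 5 concentrations. Analysis: linear interpolation between bracketing concentrations; unreached endpoints set to highest concentration. Abbreviation: GI50, concentration required for 50% inhibition of growth.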 Activity calls are given as the source filed them. No stated cut-off is given here; in the data, active = GI50 up to about 1.1 µM and inactive = higher.

Assays:
Test in all cases: NCI tumour cell line growth inhibition, 48 h
[1] = tested on: HOP-92
[2] = tested on: DU-145
[3] = tested on: SNB-75
[4] = tested on: NCI-H226
[5] = tested on: HL-60
[6] = tested on: 786-0
[7] = tested on: CCRF-CEM
[8] = tested on: A498
[9] = tested on: K562
[10] = tested on: HOP-62
[11] = tested on: OVCAR-3
[12] = tested on: MDA-MB-231
[13] = tested on: KM12
[14] = tested on: UO-31
[15] = tested on: M14
[16] = tested on: OVCAR-8
[17] = tested on: SK-MEL-5
[18] = tested on: T47D
[19] = tested on: UACC-257
[20] = tested on: SF-295
[21] = tested on: SF-268
[22] = tested on: BT-549
[23] = tested on: COLO 205
[24] = tested on: OVCAR-5
[25] = tested on: CAKI-1
[26] = tested on: SNB-19
[27] = tested on: TK-10
[28] = tested on: SR
[29] = tested on: MDA-N
[30] = tested on: SF-539
[31] = tested on: MDA-MB-435
[32] = tested on: PC-3
[33] = tested on: SN12C
[34] = tested on: LOX IMVI
[35] = tested on: IGROV-1
[36] = tested on: NCI-H460
[37] = tested on: MCF7
[38] = tested on: UACC-62
[39] = tested on: ACHN
[40] = tested on: SK-OV-3
[41] = tested on: A549
[42] = tested on: NCI-H23
[43] = tested on: SK-MEL-28
[44] = tested on: HCT-116
[45] = tested on: EKVX
[46] = tested on: OVCAR-4
[47] = tested on: Malme-3M
[48] = tested on: SK-MEL-2
[49] = tested on: HCT-15
[50] = tested on: U-251
[51] = tested on: RXF 393
[52] = tested on: RPMI-8226
[53] = tested on: NCI-H522
[54] = tested on: NCI/ADR-RES
[55] = tested on: HCC 2998
[56] = tested on: SW-620
[57] = tested on: HT-29
[58] = tested on: MOLT-4
[59] = tested on: Hs-578T

CC(C)OC(=O)c1ccc(NCc2cc(O)ccc2O)cc1
GI50 [1]: 1.95 µM (inactive)
GI50 [2]: 6.11 µM (inactive)
GI50 [3]: 4.61 µM (inactive)
GI50 [4]: 3.21 µM (inactive)
GI50 [5]: 0.462 µM (active)
GI50 [6]: 2.84 µM (inactive)
GI50 [7]: 0.27 µM (active)
GI50 [8]: 22.5 µM (inactive)
GI50 [9]: 0.946 µM (active)
GI50 [10]: 4.98 µM (inactive)
GI50 [11]: 1.47 µM (inactive)
GI50 [12]: 2.2 µM (inactive)
GI50 [13]: 3.38 µM (inactive)
GI50 [14]: 1.51 µM (inactive)
GI50 [15]: 6.84 µM (inactive)
GI50 [16]: 2.51 µM (inactive)
GI50 [17]: 3.29 µM (inactive)
GI50 [18]: 2.18 µM (inactive)
GI50 [19]: 10.3 µM (inactive)
GI50 [20]: 6.3 µM (inactive)
GI50 [21]: 4.07 µM (inactive)
GI50 [22]: 2.38 µM (inactive)
GI50 [23]: 3.06 µM (inactive)
GI50 [24]: 10.4 µM (inactive)
GI50 [25]: 1.28 µM (inactive)
GI50 [26]: 3.3 µM (inactive)
GI50 [27]: 4.53 µM (inactive)
GI50 [28]: 1.06 µM (active)
GI50 [29]: 2.52 µM (inactive)
GI50 [30]: 1.53 µM (inactive)
GI50 [31]: 2.06 µM (inactive)
GI50 [32]: 1.8 µM (inactive)
GI50 [33]: 1.71 µM (inactive)
GI50 [34]: 3.4 µM (inactive)
GI50 [35]: 3.45 µM (inactive)
GI50 [36]: 11.1 µM (inactive)
GI50 [37]: 1.66 µM (inactive)
GI50 [38]: 10.6 µM (inactive)
GI50 [39]: 3.6 µM (inactive)
GI50 [40]: 17.3 µM (inactive)
GI50 [41]: 7.48 µM (inactive)
GI50 [42]: 4.36 µM (inactive)
GI50 [43]: 8 µM (inactive)
GI50 [44]: 5.81 µM (inactive)
GI50 [45]: 3.82 µM (inactive)
GI50 [46]: 5.05 µM (inactive)
GI50 [47]: 2.16 µM (inactive)
GI50 [48]: 10.9 µM (inactive)
GI50 [49]: 2.69 µM
GI50 [50]: 4.32 µM (inactive)
GI50 [51]: 1.32 µM (inactive)
GI50 [52]: 0.483 µM (active)
GI50 [53]: 0.21 µM (active)
GI50 [54]: 1.95 µM (inactive)
GI50 [55]: 11.1 µM (inactive)
GI50 [56]: 4.86 µM (inactive)
GI50 [57]: 13.7 µM (inactive)
GI50 [58]: 1.39 µM (inactive)
GI50 [59]: 2.04 µM (inactive)

C#CC1(O)C(COP(=O)(O)OCC2OC(n3ccc(NCCCCCCCCCCCCCCCCCC)nc3=O)C(O)C2O)OC(n2ccc(N)nc2=O)C1O (stereo not drawn)
GI50 [1]: 21.2 µM (inactive)
GI50 [2]: 0.279 µM (active)
GI50 [3]: 2.67 µM (inactive)
GI50 [4]: 0.757 µM (active)
GI50 [5]: 0.298 µM (active)
GI50 [6]: 4.22 µM (inactive)
GI50 [7]: 0.929 µM (active)
GI50 [8]: 3.6 µM (inactive)
GI50 [9]: 0.278 µM (active)
GI50 [10]: 4.04 µM (inactive)
GI50 [11]: 2.59 µM (inactive)
GI50 [12]: 1.03 µM (active)
GI50 [13]: 0.836 µM (active)
GI50 [14]: 0.0716 µM (active)
GI50 [15]: 0.254 µM (active)
GI50 [16]: 1.07 µM (active)
GI50 [17]: 1.23 µM (inactive)
GI50 [18]: 1.18 µM (inactive)
GI50 [19]: 4.05 µM (inactive)
GI50 [20]: 0.349 µM (active)
GI50 [21]: 1.34 µM (inactive)
GI50 [22]: 2.73 µM (inactive)
GI50 [23]: 0.71 µM (active)
GI50 [24]: 5.36 µM (inactive)
GI50 [25]: 0.161 µM (active)
GI50 [26]: 2.71 µM (inactive)
GI50 [27]: 0.401 µM (active)
GI50 [28]: < 0.0124 µM (active)
GI50 [29]: 1.14 µM (inactive)
GI50 [30]: 1.16 µM (inactive)
GI50 [31]: 0.575 µM (active)
GI50 [32]: 1.8 µM (inactive)
GI50 [33]: 0.488 µM (active)
GI50 [34]: 0.048 µM (active)
GI50 [35]: 0.218 µM (active)
GI50 [36]: 0.0519 µM (active)
GI50 [37]: 0.059 µM (active)
GI50 [38]: 0.614 µM (active)
GI50 [39]: 0.175 µM (active)
GI50 [40]: 8.13 µM (inactive)
GI50 [41]: 0.0525 µM (active)
GI50 [42]: 3.73 µM (inactive)
GI50 [43]: 1.78 µM (inactive)
GI50 [44]: 0.245 µM (active)
GI50 [45]: 8.24 µM (inactive)
GI50 [46]: 1.82 µM (inactive)
GI50 [47]: 0.745 µM (active)
GI50 [48]: 0.67 µM (active)
GI50 [49]: 0.353 µM
GI50 [50]: 0.959 µM (active)
GI50 [51]: 4.15 µM (inactive)
GI50 [52]: 0.142 µM (active)
GI50 [53]: 0.032 µM (active)
GI50 [54]: 0.556 µM (active)
GI50 [55]: 0.703 µM (active)
GI50 [56]: 0.228 µM (active)
GI50 [57]: 0.518 µM (active)
GI50 [58]: 0.418 µM (active)
GI50 [59]: 2.12 µM (inactive)
